Measurements: article PMC3764405, “Synthesis and evaluation of a ^125I-labeled iminodihydroquinoline-derived tracer for imaging of voltage-gated sodium channels^” (Bioorganic & Medicinal Chemistry Letters, 2013)

Biological target: T1, human Nav1.2 isoform (hNav1.2) (Homo sapiens, UniProt Q99250)
T1 construct: gene SCN2A
Test: automated patch clamp, CHO cells transfected with hNav1.[…]
Type: cell-based

T1 sequence (Q99250 whole entry, canonical isoform): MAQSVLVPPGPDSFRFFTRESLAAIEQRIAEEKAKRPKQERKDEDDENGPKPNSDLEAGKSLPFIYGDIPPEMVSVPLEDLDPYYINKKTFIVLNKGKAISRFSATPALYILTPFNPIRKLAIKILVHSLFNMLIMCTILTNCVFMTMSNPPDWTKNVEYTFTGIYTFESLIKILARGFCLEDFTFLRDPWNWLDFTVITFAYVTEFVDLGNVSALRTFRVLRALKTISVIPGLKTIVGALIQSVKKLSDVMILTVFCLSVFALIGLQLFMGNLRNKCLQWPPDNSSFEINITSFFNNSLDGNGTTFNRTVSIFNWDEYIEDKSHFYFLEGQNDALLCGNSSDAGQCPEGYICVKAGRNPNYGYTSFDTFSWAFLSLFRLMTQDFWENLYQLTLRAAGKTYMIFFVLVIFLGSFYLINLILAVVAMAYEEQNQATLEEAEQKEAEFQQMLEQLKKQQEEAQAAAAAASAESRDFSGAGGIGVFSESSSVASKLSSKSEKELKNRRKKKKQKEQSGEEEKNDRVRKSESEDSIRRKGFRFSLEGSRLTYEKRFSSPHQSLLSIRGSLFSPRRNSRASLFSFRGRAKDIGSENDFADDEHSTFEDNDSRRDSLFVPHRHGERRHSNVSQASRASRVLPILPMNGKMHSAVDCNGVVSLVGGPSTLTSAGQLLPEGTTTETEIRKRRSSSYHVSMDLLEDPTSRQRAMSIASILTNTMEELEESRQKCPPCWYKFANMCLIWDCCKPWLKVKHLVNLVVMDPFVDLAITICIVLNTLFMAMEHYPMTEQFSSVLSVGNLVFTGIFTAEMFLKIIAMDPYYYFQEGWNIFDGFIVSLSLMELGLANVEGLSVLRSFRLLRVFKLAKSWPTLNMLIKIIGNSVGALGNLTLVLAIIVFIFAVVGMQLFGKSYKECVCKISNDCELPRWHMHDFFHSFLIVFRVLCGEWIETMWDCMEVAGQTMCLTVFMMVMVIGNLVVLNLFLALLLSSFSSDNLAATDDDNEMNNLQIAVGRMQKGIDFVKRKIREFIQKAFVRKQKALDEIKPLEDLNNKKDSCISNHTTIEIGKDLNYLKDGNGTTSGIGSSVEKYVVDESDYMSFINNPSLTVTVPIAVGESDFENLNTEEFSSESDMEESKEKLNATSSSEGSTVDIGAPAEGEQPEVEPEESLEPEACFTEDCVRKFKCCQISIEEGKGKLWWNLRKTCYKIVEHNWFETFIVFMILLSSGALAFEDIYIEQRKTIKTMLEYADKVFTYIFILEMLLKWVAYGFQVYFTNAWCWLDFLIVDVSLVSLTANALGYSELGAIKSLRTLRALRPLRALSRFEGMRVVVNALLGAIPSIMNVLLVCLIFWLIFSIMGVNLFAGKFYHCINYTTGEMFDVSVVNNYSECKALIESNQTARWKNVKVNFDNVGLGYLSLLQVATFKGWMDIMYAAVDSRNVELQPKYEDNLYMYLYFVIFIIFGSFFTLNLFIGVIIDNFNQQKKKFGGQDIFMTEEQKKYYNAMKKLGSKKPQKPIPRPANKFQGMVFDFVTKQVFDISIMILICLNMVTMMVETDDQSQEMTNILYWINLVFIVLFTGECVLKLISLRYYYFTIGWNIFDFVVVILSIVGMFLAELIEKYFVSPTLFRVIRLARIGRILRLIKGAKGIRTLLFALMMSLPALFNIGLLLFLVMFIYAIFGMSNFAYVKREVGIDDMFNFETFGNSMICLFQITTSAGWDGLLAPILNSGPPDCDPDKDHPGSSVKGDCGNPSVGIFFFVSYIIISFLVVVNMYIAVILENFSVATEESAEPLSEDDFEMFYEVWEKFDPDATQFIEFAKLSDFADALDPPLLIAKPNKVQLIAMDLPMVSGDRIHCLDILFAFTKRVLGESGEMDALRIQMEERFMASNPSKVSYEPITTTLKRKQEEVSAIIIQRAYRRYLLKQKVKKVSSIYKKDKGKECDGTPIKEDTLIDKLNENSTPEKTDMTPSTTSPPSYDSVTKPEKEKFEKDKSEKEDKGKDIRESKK

Compound	IC50 [nM]
CCCCCN=c1ccn(Cc2ccccc2)c2cc(Cl)ccc12 [WIN17317-3]	2200 ± 1200
CCCCCN=c1ccn(Cc2ccccc2)c2cc(I)ccc12 [compound 10, 10]	1500 ± 500
